Measured values published in patent US8258293B2, “Tetrahydroquinoline derivatives” (MSD OSS B.V., priority 2001, dated 2012).

molecular target: T1, human FSH receptor (Homo sapiens, UniProt P23945); test: CHO-FSH in vitro bio activity (CRE-luciferase reporter); assay type: cell-based; conditions: CHO cells stably transfected with human FSH receptor and CRE/luciferase reporter; half-maximal (50%) stimulation
T1 construct: expressed in transfected cells; host or cells: Chinese Hamster Ovary (CHO) cells
T1 sequence (P23945 18-695): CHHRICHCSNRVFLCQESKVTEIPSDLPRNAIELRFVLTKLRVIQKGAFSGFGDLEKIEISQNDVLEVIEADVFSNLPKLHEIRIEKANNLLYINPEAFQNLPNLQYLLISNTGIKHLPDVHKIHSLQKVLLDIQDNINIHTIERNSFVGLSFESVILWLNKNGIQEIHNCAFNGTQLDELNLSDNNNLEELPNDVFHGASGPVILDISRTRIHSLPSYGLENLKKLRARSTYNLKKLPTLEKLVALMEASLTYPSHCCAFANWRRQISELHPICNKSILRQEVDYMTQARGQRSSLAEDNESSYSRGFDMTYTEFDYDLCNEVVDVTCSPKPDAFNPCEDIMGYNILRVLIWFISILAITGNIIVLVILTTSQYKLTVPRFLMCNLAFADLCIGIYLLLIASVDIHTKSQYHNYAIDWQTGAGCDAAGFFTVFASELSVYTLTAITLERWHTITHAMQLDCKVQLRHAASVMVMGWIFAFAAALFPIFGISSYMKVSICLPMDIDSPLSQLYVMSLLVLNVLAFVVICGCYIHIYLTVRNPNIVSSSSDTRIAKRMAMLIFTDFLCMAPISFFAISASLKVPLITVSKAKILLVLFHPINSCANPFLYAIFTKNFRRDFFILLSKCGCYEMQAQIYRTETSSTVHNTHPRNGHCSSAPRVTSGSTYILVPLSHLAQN
Protocol: FSH activity of compounds were tested in Chinese Hamster Ovary (CHO) cells stably transfected with the human FSH receptor and cotransfected with a cAMP responsive element (CRE)/promotor directing the expression of a firefly luciferase reporter gene. Binding of ligand to the Gs-coupled FSH receptor will result in an increase of cAMP, which in turn will induce an increased transactivation of the luciferase reporter construct. The luciferase signal was quantified using a luminescence counter. For test compounds, EC50 values (concentration of test compound causing half-maximal (50%) stimulation) were calculated. For that purpose the software program GraphPad PRISM, version 3.0 (GraphPad software Inc., San Diego) was used.

EC50, < 100 nM:
COc1cc(C(=O)Nc2ccc3c(c2)C(C)(c2ccccc2)CC(C)(C)N3C(C)=O)cc(OC)c1OC (stereo not shown) [Example 52, 1-Acetyl-6-(3,4,5-trimethoxybenzoyl)amino-4-phenyl-1,2,3,4-tetrahydro-2,2,4-trimethylquinoline]
CC(=O)N1c2ccc(NC(=O)c3cccc(C)c3-c3ccccc3)cc2C(C)(c2ccccc2)CC1(C)C (stereo not shown) [Example 16, 1-Acetyl-4-phenyl-6-(2-phenyl-3-methylbenzoyl)amino-1,2,3,4-tetrahydro-2,2,4-trimethylquinoline]
COc1ccc(Br)c(OC)c1C(=O)Nc1ccc2c(c1)C(C)(c1ccccc1)CC(C)(C)N2C(C)=O (stereo not shown) [Example 11, 1-Acetyl-6-(3-bromo-2,6-dimethoxybenzoyl)amino-4-phenyl-1,2,3,4-tetrahydro-2,2,4-trimethylquinoline]
CC(=O)N1c2ccc(NC(=O)CCc3ccccc3)cc2C(C)(c2ccccc2)CC1(C)C (stereo not shown) [Example 21, 1-Acetyl-4-phenyl-6-(3-phenylpropionyl)amino-1,2,3,4-tetrahydro-2,2,4-trimethylquinoline]
CC(=O)N1c2cc(C)c(NC(=O)c3ccc(-c4ccccc4)cc3)cc2C(C)(c2ccccc2)CC1(C)C (stereo not shown) [Example 45, 1-Acetyl-6-(4-phenylbenzoyl)amino-4-phenyl-1,2,3,4-tetrahydro-2,2,4,7-tetramethylquinoline]
CC(=O)N1c2ccc(NC(=O)c3ccc(C(F)(F)F)cc3)cc2C(C)(c2ccccc2)CC1(C)C (stereo not shown) [Example 8, 1-Acetyl-4-phenyl-1,2,3,4-tetrahydro-6-(4-[trifluoromethyl]benzoyl)amino-2,2,4-trimethylquinoline]
CC(=O)N1c2ccc(NC(=O)c3ccccc3OC(=O)N3CCOCC3)cc2C(C)(c2ccccc2)CC1(C)C (stereo not shown) [Example 63, 1-Acetyl-6-(2-[morpholino-4-carbonyl]oxybenzoyl)amino-4-phenyl-1,2,3,4-tetrahydro-2,2,4-trimethylquinoline]
CC(=O)N1c2ccc(NC(=O)c3ccc(Cl)cc3)cc2C(C)(c2ccccc2)CC1(C)C (stereo not shown) [Example 6, 1-Acetyl-6-(4-chlorobenzoyl)amino-4-phenyl-1,2,3,4-tetrahydro-2,2,4-trimethylquinoline]
COc1ccc(-c2ccccc2)c(C(=O)Nc2ccc3c(c2)C(C)(c2ccccc2)CC(C)(C)N3C(C)=O)c1 (stereo not shown) [Example 15, 1-Acetyl-4-phenyl-6-(2-phenyl-5-methoxybenzoyl)amino-1,2,3,4-tetrahydro-2,2,4-trimethylquinoline]
CC(=O)N1c2ccc(OC(=O)c3ccc(-c4ccccc4)cc3)cc2C(C)(c2ccccc2)CC1(C)C (stereo not shown) [Example 37, 1-Acetyl-6-(4-phenylbenzoyl)oxy-4-phenyl-1,2,3,4-tetrahydro-2,2,4-trimethylquinoline]
CC(=O)N1c2ccc(NC(=O)OC(C)(C)C)cc2C(C)(c2ccccc2)CC1(C)C (stereo not shown) [Example 1, 1-Acetyl-6-(tert-butoxycarbonyl)amino-4-phenyl-1,2,3,4-tetrahydro-2,2,4-trimethylquinoline]
CC(=O)N1c2ccc(NC(=O)c3cc(Br)cc(Br)c3)cc2C(C)(c2ccccc2)CC1(C)C (stereo not shown) [Example 50, 1-Acetyl-6-(3,5-dibromobenzoyl)amino-4-phenyl-1,2,3,4-tetrahydro-2,2,4-trimethylquinoline]
CC(=O)N1c2ccc(NC(=O)c3ccc(-c4ccc(Cl)cc4)cc3)cc2C(C)(c2ccccc2)CC1(C)C (stereo not shown) [Example 13, 1-Acetyl-6-(4-[4-chlorophenyl]benzoyl)amino-4-phenyl-1,2,3,4-tetrahydro-2,2,4-trimethylquinoline]
CC(=O)N1c2ccc(NC(=O)c3ccccc3)cc2C(C)(c2ccccc2)CC1(C)C (stereo not shown) [Example 7, 1-Acetyl-6-benzoylamino-4-phenyl-1,2,3,4-tetrahydro-2,2,4-trimethylquinoline]
CC(=O)N1c2ccc(NC(=O)CN3CCN(c4ccccc4)CC3)cc2C(C)(c2ccccc2)CC1(C)C (stereo not shown) [Example 30, 1-Acetyl-6-([4-{1-phenyl}-piperazinyl]methylcarbonyl)amino-4-phenyl-1,2,3,4-tetrahydro-2,2,4-trimethylquinoline]
CC(=O)N1c2ccc(NC(=O)c3ccc(-c4ccccc4)cc3)cc2C(C)(c2ccccc2)CC1(C)C (stereo not shown) [Example 12, 1-Acetyl-4-phenyl-6-(4-phenylbenzoyl)amino-1,2,3,4-tetrahydro-2,2,4-trimethylquinoline]
COc1ccc(COC(=O)c2ccc3c(c2)C(C)(c2ccccc2)CC(C)(C)N3C(C)=O)cc1 (stereo not shown) [Example 36, 1-Acetyl-6-(4-methoxybenzyloxy)carbonyl-4-phenyl-1,2,3,4-tetrahydro-2,2,4-trimethylquinoline]
CC(=O)N1c2ccc(NC(=O)CC(C)C)cc2C(C)(c2ccccc2)CC1(C)C (stereo not shown) [Example 23, 1-Acetyl-6-(isovaleryl)amino-4-phenyl-1,2,3,4-tetrahydro-2,2,4-trimethylquinoline]
CC(=O)N1c2ccc(NC(=O)c3ccccc3OS(C)(=O)=O)cc2C(C)(c2ccccc2)CC1(C)C (stereo not shown) [Example 58, 1-Acetyl-6-(2-methylsulfonyloxybenzoyl)amino-4-phenyl-1,2,3,4-tetrahydro-2,2,4-trimethylquinoline]
CNc1ccc(Br)cc1C(=O)Nc1ccc2c(c1)C(C)(c1ccccc1)CC(C)(C)N2C(C)=O (stereo not shown) [Example 51, 1-Acetyl-6-(5-bromo-2-methylaminobenzoyl)amino-4-phenyl-1,2,3,4-tetrahydro-2,2,4-trimethylquinoline]
CC(=O)N1c2ccc(NC(=O)c3ccccc3OC(=O)c3cc(C)on3)cc2C(C)(c2ccccc2)CC1(C)C (stereo not shown) [Example 61, 1-Acetyl-6-(2-[5-methylisoxazole-3-carbonyl]oxybenzoyl)amino-4-phenyl-1,2,3,4-tetrahydro-2,2,4-trimethylquinoline]
COc1cc(NC(=O)c2ccc(-c3ccccc3)cc2)cc2c1N(C(C)=O)C(C)(C)CC2(C)c1ccccc1 (stereo not shown) [Example 46, 1-Acetyl-6-(4-phenylbenzoyl)amino-8-methoxy-4-phenyl-1,2,3,4-tetrahydro-2,2,4-trimethylquinoline]
CC(=O)N1c2ccc(NC(=O)c3ccco3)cc2C(C)(c2ccccc2)CC1(C)C (stereo not shown) [Example 22, 1-Acetyl-6-(2-furoyl)amino-4-phenyl-1,2,3,4-tetrahydro-2,2,4-trimethylquinoline]
CCCc1ccc(C(=O)Nc2ccc3c(c2)C(C)(c2ccccc2)CC(C)(C)N3C(C)=O)cc1 (stereo not shown) [Example 10, 1-Acetyl-4-phenyl-6-(4-n-propylbenzoyl)amino-1,2,3,4-tetrahydro-2,2,4-trimethylquinoline]
CC(=O)N1c2ccc(NC(=O)c3ccc([N+](=O)[O-])cc3)cc2C(C)(c2ccccc2)CC1(C)C (stereo not shown) [Example 9, 1-Acetyl-6-(4-nitrobenzoyl)amino-4-phenyl-1,2,3,4-tetrahydro-2,2,4-trimethylquinoline]
CC(=O)N1c2ccc(NC(=O)c3ccccc3Nc3ccccc3)cc2C(C)(c2ccccc2)CC1(C)C (stereo not shown) [Example 64, 1-Acetyl-6-(2-phenylaminobenzoyl)amino-4-phenyl-1,2,3,4-tetrahydro-2,2,4-trimethylquinoline]
CC(=O)N1c2ccc(NC(=O)CCC34CC5CC(CC(C5)C3)C4)cc2C(C)(c2ccccc2)CC1(C)C (stereo not shown) [Example 24, 1-Acetyl-6-(3-[adamantan-1-yl]propionyl)amino-4-phenyl-1,2,3,4-tetrahydro-2,2,4-trimethylquinoline]
COc1c(Cl)cc(Cl)c(OC)c1C(=O)Nc1ccc2c(c1)C(C)(c1ccccc1)CC(C)(C)N2C(C)=O (stereo not shown) [Example 53, 1-Acetyl-6-(3,5-dichloro-2,6-dimethoxybenzoyl)amino-4-phenyl-1,2,3,4-tetrahydro-2,2,4-trimethylquinoline]
